For five molecules, Relative potency results are on record in ChEMBL document CHEMBL1123316, “Synthesis and biological activity of substance P C-terminal hexapeptide analogues: structure-activity studies” (1986).

The species named for one assay is Cavia porcellus. Description: In vitro potency as spasmogen relative to SP against guinea pig ileum.
A further assay is filed under the species Rattus norvegicus. Description: In vitro potency as spasmogen relative to SP against rat colon muscularis mucosae.

Where a SMILES comes first, the peptide text is derived from it. [ ]: non-standard residue; d: D form. Orn = NCCC[C@H](N)C(=O)O

With `CO[C@H](C)[C@H](N)C(=O)N[C@@H](Cc1ccccc1)C(=O)N[C@@H](Cc1ccccc1)C(=O)NCC(=O)N[C@@H](CC(C)C)C(=O)N[C@@H](CCSC)C(N)=O` (H-T(Me)FFGLM-NH2), the values for the Relative potency in the assay filed under Cavia porcellus and in the assay listed under Rattus norvegicus were 0.066 and 0.16, respectively.
The corresponding values for `CSCC[C@H](NC(=O)[C@H](CC(C)C)NC(=O)CNC(=O)[C@H](Cc1ccccc1)NC(=O)[C@H](Cc1ccccc1)NC(=O)[C@@H](N)CCCN)C(N)=O` (H-[Orn]FFGLM-NH2) are 0.39 and 0.36.
In the same order, the values of H-QFFGLM-NH2 are 0.3 and 0.076.
In the same order, the values of H-TFFGLM-NH2 are 0.021 and 0.056.
Consider H-VFFGLM-NH2, for which the Relative potency in the assay listed under Cavia porcellus is 0.067; in the assay filed under Rattus norvegicus, 0.15.
